Patent US12516058B2, “Small-molecule compounds for controlling endosomal toll-like receptors and therapeutic agent for autoimmune diseases using same” (priority 2020, dated 2026)
“Also recorded” adds a separate entry of the source.

Experiments:
TLR4 = molecular target: T1, TLR4 (Mus musculus, UniProt Q9QUK6); experiment: TNF-α secretion ELISA after LPS in RAW 264.7 cells; format: cell-based
T1 construct: endogenous in cells; host or cells: RAW 264.7
T1 sequence (Q9QUK6 26-835): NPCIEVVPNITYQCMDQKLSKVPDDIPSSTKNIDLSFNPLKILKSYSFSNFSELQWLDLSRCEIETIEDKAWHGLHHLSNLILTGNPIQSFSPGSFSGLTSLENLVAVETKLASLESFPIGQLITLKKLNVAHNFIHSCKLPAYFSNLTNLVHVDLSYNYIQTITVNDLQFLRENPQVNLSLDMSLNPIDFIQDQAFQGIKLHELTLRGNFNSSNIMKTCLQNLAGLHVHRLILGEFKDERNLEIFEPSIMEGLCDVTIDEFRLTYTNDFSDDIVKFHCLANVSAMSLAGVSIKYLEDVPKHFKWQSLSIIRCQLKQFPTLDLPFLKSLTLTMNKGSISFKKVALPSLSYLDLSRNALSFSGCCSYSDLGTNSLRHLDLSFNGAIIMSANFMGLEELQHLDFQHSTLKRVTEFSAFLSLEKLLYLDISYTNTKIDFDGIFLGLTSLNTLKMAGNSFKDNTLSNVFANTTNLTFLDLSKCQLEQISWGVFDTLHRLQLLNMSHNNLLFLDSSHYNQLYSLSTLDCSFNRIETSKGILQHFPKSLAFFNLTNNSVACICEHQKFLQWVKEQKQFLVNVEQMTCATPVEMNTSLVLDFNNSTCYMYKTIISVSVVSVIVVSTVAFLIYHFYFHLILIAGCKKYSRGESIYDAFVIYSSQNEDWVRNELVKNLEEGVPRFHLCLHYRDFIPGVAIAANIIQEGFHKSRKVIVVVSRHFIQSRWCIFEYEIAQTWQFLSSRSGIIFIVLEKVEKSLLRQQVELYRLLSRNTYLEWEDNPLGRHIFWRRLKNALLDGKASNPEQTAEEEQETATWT
T1 sequence (Q9JHF9 19-160 partner): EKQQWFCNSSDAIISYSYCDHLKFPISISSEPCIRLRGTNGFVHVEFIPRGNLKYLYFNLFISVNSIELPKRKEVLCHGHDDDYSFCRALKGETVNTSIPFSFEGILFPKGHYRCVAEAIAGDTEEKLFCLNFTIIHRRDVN
Experimental: In order to determine the inhibitory activities of the test-ligand, RAW 264.7 cells were pretreated with each candidate compound for 1 hour, then treated with Pam3CSK4 (synthetic triacyl lipopeptide; TLR1/2, Invitrogen), FSL-1 (synthetic diacyl lipoprotein, TLR2/6, 100 ng/ml), lipopolysaccharide (LPS, TLR4, Sigma Aldrich), imiquimod (IMQ, TLR7, Invitrogen), and ODN2395 (type C CpG repeat motif DNA oligo(5′-[…]-3), TLR9, Bioneer) ligand for 4 hours, and treated with poly I:C (I:C repeat motif double-stranded RNA, TLR3, Invitrogen) and TL8-506 (TLR8, Invitrogen) showing delayed reactivity for 24 hours. After activation of TLR, the supernatant was diluted in an appropriate ratio so as to measure within the standard dose range, transferred to a pre-coated 96-well assay plate, and then treated with mouse TNF-alpha secretion level in accordance with the manufacturer's instructions using a mouse-TNF-alpha ELISA-kit (Invitrogen).
In order to determine the inhibitory activities of SK41, SK50, SK58 and SK64 on various TLR signaling pathways, RAW 264.7 cells were cultured along with each compound and then stimulated with different TLR agonists. The TLR agonists used herein were Pam3CSK4 (TLR1/2), FSL-1 (TLR2/6), LPS (TLR4) and FLA-ST (TLR5) as cell surface TLRs, and poly I:C (TLR3) and TL8-506 (TLR8) as endosomal TLRs.

RAW 264.7 cells = experiment: MTT cytotoxicity (LC50) and therapeutic index analysis; format: cell-based, mouse; conditions: 24 h, among the 13 selected compounds
Experimental: RAW 264.7 cells were seeded at a density of 2×10^4 cells/well in a 96-well cell culture plate and stabilized overnight in a humidified incubator. Each well was treated with a test compound or negative control (dimethyl sulfoxide; DMSO). The plates were allowed to stand in an incubator for 24 hours. Then, the medium of the 96-well culture dish was discarded and 500 μg/ml MTT solution (InvivoGen Ltd.) was added to each well. After incubation for 3 hours, the solution was removed and the residue was incubated in DMSO (Biosesang Co. Ltd., Korea) for 30 minutes to completely dissolve the formazan dye. The absorbance was measured at a wavelength of 595 nm with a microplate colorimetric reader and normalized based on the untreated control. All cultures were performed under the same conditions as in the cell culture described above.
In order to plot the concentration-dependent LC50 curves, treatment with the SK series ligands at different concentrations up to 200 μM (the highest concentration that could be treated within the level of 0.5% DMSO) was performed. Then, cell viability and toxicity response upon treatment with ligands were analyzed by MTT as described in Examples 1-3. Cell viability in each plot was normalized from negative control (100%; no treatment) to positive control (highest concentration of test-ligand), and LC50 was determined by non-linear regression (Graph Pad Prism 7.0). In order to plot the concentration-dependent IC50 curves, pre-treatment with the SK series ligands was performed at different concentrations up to 50 μM (twice the initial concentration). Cell responses mediated by TLR7 and TLR9 (levels of TNF-α secretion) were analyzed by ELISA as described in Examples 1-4. The cytokine level in each plot was normalized from negative control (non-treated) to positive control (treatment with ligand), and IC50 was determined by non-linear regression (Graph Pad Prism 7.0).
Then, LC50 and IC50 were applied to the following function to calculate TI.

Compound	inhibitory activity against cell surface TLR4 (TNF-α secretion) (TLR4)	toxicity (LC50) (RAW 264.7 cells)
Cc1cc2c(N)c3c(nc2n1CCCN(C)C)CCCCCC3 [SK41, 1-(3-(dimethylamino)propyl)-2-methyl-5,6,7,8,9,10-hexahydro-1H-cycloocta[b]pyrrolo[3,2-e]pyridin-4-amine]	did not exhibit a specific inhibitory activity; also recorded: no inhibitory activities	lower toxicity
COc1ccc2c(c1)c1c(N)c3c(nc1n2CCCN(C)C)CCCC3 [SK50, 6-(3-(dimethylamino)propyl)-9-methoxy-2,3,4,6-tetrahydro-1H-indolo[2,3-b]quinolin-11-amine]	did not exhibit a specific inhibitory activity; also recorded: no inhibitory activities	lower toxicity
Cc1ccc2c(c1)c1c(N)c3c(nc1n2CCCN(C)C)CCCC3 [SK58, 6-(3-(dimethylamino)propyl)-9-methyl-2,3,4,6-tetrahydro-1H-indolo[2,3-b]quinolin-11-amine]	did not exhibit a specific inhibitory activity; also recorded: no inhibitory activities	lower toxicity
COC(=O)c1ccc2c(c1)c1c(N)c3c(nc1n2CCCN(C)C)CCCC3 [SK64, Methyl 11-amino-6-(3-(dimethylamino)propyl)-2,3,4,6-tetrahydro-1H-indolo[2,3-b]quinolin-9-carboxylate]	did not exhibit a specific inhibitory activity; also recorded: no inhibitory activities	lower toxicity
